Patent publication US20050118564A1, “Methods and compositions for identification and therapeutic use of genes involved in vascular and proliferative diseases” (priority 2002, published 2005)

Columns and labels:
Assay type in all cases: cell-based
[1] = tested on: Human aortic endothelial cells (HAEC); experiment: MCP-1 secretion by human aortic endothelial cells exposed to disease stimuli (ELISA); conditions: 16 hrs, stimulus alone: 1 ng/ml TNF-α, 1 nM insulin or 100 μg/ml glycated HSA
Procedure: (§1) Human aortic endothelial cells (HAEC) were grown with culture medium (Basal medium from Clonetics) containing 0.2% albumin with or without 1 ng/ml TNF-α or 100 μg/ml glycated-human serum albumin (HAS) or 1 nM insulin for 16 hrs. Media were collected and the amounts of […] (DuoSet ELISA development kit—R&D Systems) and MCP-1 (Quantiline Human MCP-1 kit—R&D Systems) were measured. VCAM-1 expression was measured by incubating […] with a polyclonal goat anti-human VCAM-1 antibody (R&D Systems, 1:1000 dilution) followed by development with a rabbit anti-goat IgG-conjugated with horseradish peroxidase (HRP).

[2] = tested on: Human aortic endothelial cells (HAEC); experiment: VCAM-1 expression in human aortic endothelial cells exposed to disease stimuli; conditions: 16 hrs, 1 ng/ml TNF-α, 1 nM insulin, alone or together
Procedure: as §1

Smooth muscle cells [3] = experiment: IL-6 secretion by smooth muscle cells exposed to disease stimuli; conditions: 1 ng/ml TNF-α, 1 nM insulin, alone or together
Smooth muscle cells [4] = experiment: MCP-1 secretion by smooth muscle cells exposed to disease stimuli; conditions: 1 ng/ml TNF-α, 1 nM insulin, alone or together
[5] = tested on: Endothelial and smooth muscle cells grown together; experiment: IL-6 expression in co-cultures of endothelial and smooth muscle cells; conditions: endothelial and smooth muscle cells mixed (1:1, 1:2, 1:4) or layered; TNFα 1 ng/ml
Procedure: Endothelial and smooth muscle cells were grown together in culture media (Basal medium from Clonetics) containing 0.2% albumin. The cells had either nothing added, 1ng/ml TNFα, 1 nM insulin or TNFα and insulin. The media were collected and the amount of IL-6 and MCP-1 was measured.

Substance: TNF-α
- increase in MCP-1 secretion [1]: about 400%
- effect on VCAM-1 gene expression [2]: 2.8 fold
- induction of IL-6 expression (Smooth muscle cells [3]): only moderate induction
- induction of MCP-1 expression (Smooth muscle cells [4]): only moderate induction
- stimulus-induced IL-6 expression in co-culture versus cells cultured separately [5]: greatly enhanced

Substance: Insulin: hormone used as vascular disease stimulus, 1 nM
- increase in MCP-1 secretion [1]: 40%
- effect on VCAM-1 gene expression [2]: no effect
- induction of IL-6 expression (Smooth muscle cells [3]): only moderate induction
- induction of MCP-1 expression (Smooth muscle cells [4]): only moderate induction

Substance: interleukin-1: cytokine used as disease stimulus in co-cultures (FIG. 8: IL-1β)
- stimulus-induced IL-6 expression in co-culture versus cells cultured separately [5]: neither interleukin-1 nor glycated albumin/advanced glycation end products (AGE) showed enhanced induction
